Assay results as given in patent US20220274961A1, “SUBSTITUTED FUSED BI- OR TRI- HETEROCYCLIC COMPOUNDS AS EHMT2 INHIBITORS” (priority 2016, published 2022).

target: T1, EHMT2 (Homo sapiens, UniProt Q96KQ7); experiment: MDA-MB-231 H3K9me2 in-cell Western assay (EHMT2 ICW); type: cell-based; details: not given
T1 construct: endogenous in cells; host or cells: MDA-MB-231 (ATCC)
T1 sequence (Q96KQ7 1-1210): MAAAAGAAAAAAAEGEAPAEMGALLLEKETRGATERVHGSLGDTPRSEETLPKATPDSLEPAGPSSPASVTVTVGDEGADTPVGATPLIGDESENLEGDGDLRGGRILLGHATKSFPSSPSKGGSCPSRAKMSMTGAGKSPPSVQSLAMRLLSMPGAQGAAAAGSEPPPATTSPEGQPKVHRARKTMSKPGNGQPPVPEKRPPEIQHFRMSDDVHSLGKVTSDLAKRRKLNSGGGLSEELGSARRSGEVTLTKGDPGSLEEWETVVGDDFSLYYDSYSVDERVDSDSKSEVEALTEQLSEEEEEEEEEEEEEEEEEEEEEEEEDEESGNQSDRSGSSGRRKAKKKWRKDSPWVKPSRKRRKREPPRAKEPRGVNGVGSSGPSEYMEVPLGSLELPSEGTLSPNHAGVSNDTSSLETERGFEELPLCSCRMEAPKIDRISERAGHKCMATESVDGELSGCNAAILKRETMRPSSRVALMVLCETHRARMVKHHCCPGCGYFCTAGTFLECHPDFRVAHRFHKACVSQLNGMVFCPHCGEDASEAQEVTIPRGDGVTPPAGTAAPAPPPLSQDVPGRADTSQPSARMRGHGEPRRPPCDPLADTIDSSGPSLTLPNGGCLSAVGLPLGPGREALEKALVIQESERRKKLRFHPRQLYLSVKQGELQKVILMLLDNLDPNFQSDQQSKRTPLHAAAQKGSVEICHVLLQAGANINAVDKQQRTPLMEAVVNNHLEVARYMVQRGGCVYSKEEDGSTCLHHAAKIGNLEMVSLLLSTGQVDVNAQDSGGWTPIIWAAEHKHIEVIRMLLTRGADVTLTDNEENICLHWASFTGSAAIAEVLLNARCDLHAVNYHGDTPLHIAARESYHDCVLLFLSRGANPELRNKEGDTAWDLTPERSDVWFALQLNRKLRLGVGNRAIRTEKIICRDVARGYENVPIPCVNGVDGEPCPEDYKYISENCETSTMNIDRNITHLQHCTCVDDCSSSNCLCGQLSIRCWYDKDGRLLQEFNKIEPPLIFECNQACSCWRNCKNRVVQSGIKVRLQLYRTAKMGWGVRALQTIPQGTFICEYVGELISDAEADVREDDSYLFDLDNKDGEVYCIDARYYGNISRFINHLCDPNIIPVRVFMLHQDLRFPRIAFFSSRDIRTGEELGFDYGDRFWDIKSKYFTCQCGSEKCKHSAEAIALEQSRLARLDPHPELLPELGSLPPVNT
Text: MDA-MB-231 cell line was purchased from ATCC (Manassas, Va., USA). RPMI/Glutamax medium, Penicillin-Streptomycin, Heat Inactivated Fetal Bovine Serum, and D-PBS were purchased from Life Technologies (Grand Island, N.Y., USA). Odyssey blocking buffer, 800CW goat anti-mouse IgG (H+L) antibody, and Licor Odyssey Infrared Scanner were purchased from Licor Biosciences, Lincoln, Nebr., USA. H3K9me2 mouse monoclonal antibody (Cat #1220) was purchased from Abcam (Cambridge, Mass., USA). 16% Paraformaldehyde was purchased from Electron Microscopy Sciences, Hatfield, Pa., USA). MDA-MB-231 cells were maintained in complete growth medium (RPMI supplemented with 10% v/v heat inactivated fetal bovine serum) and cultured at 37° C. under 5% CO2. UNC0638 was purchased from Sigma-Aldrich (St. Louis, Mo., USA).
General Procedure for MDA-MB-231 HEK9me2 in-cell Western Assay. Compound (100 nL) was added directly to 384-well cell plate. MDA-MB-231 cells (ATCC) were seeded in assay medium (RPMI/Glutamax supplemented with 10% v/v heat inactivated fetal bovine serum and 1% Penicillin/Streptomycin, Life Technologies) at a concentration of 3,000 cells per well to a Poly-D-Lysine coated 384-well cell culture plate with 50 μL per well. Plates were incubated at 37° C., 5% CO2 for 48 hours (BD Biosciences 356697). Plates were incubated at room temperature for 30 minutes and then incubated at 37° C., 5% CO2 for additional 48 hours. After the incubation, 50 μL per well of 8% paraformaldehyde (Electron Microscopy Sciences) in PBS was added to the plates and incubated at room temperature for 20 minutes. Plates were transferred to a Biotek 406 plate washer and washed 2 times with 100 μL per well of wash buffer (1×PBS containing 0.3% Triton X-100 (v/v)). Next, 60 μL per well of Odyssey blocking buffer (Licor Biosciences) was added to each plate and incubated for 1 hour at room temperature. Blocking buffer was removed and 20 μL of monoclonal primary antibody α-H3K9me2 (Abcam) diluted 1:800 in Odyssey buffer with 0.1% Tween 20 (v/v) were added and plates were incubated overnight (16 hours) at 4° C. Plates were washed 5 times with 100 μL per well of wash buffer. Next 20 μL per well of secondary antibody was added (1:500 800CW donkey anti-mouse IgG (H+L) antibody (Licor Biosciences), 1:1000 DRAQ5 (Cell Signaling Technology) in Odyssey buffer with 0.1% Tween 20 (v/v)) and incubated for 1 hour at room temperature. The plates were washed 5 times with […] wash buffer then 2 times with 100 μL per well of water. Plates were allowed to dry at room temperature then imaged on a Licor Odyssey Infrared Scanner (Licor Biosciences) which measured integrated intensity at 700 nm and 800 nm wavelengths. Both 700 and 800 channels were scanned.
% Inhibition Calculation. First, the ratio for each well was determined by:
Each plate included fourteen control wells of DMSO only treatment (Minimum Inhibition) as well as fourteen control wells (background wells) for maximum inhibition treated with control compound UNC0638 (Background wells).
The average of the ratio values for each well was calculated and used to determine the percent inhibition for each test well in the plate. Control compound was serially diluted three-fold in DMSO for a total of 10 test concentrations beginning at 1 μM. Percent inhibition was calculated as: […]
IC50 curves were generated using triplicate wells per concentration of compound. The IC50 is the concentration of compound at which measured methylation is inhibited by 50% as interpolated from the dose response curves. IC50 values were calculated using a non-linear regression (variable slope-four parameter fit model) with by the following formula:
where Top is fixed at 100% and Bottom is fixed to 0%, [I]=concentration of inhibitor, IC50=half maximal inhibitory concentration, and n=Hill Slope.

Row | SMILES | IC50 [µM]
1 | COc1cc2c(cc1OCCCN1CCCC1)N=C(N)C21CCOC1 (stereo not drawn) [Compound 7, 5′-methoxy-6′-(3-(pyrrolidin-1-yl)propoxy)-4,5-dihydro-2H-spiro[furan-3,3′-indol]-2′-amine] | 0.1 to 1

same assay, conditions: MDA-MB-231 cells, H3K9me2 in-cell Western; read-out: EHMT2 ICW (IC50 μM)

Row | SMILES | IC50 [µM]
2 | COc1cc2[nH]c(N)nc2cc1OCCCN1CCCC1 [Compound 1, 6-methoxy-5-(3-(pyrrolidin-1-yl)propoxy)-1H-benzo[d]imidazol-2-amine] | 1 to 10
3 | COc1cc2c(cc1OCCCN1CCCC1)nc(N)n2C [Compound 2, 6-methoxy-1-methyl-5-(3-(pyrrolidin-1-yl)propoxy)-1H-benzo[d]imidazol-2-amine] | 0.1 to 1
4 | COc1cc2c(cc1OCCCN1CCCC1)nc(N)n2C1CCCC1 [Compound 3, 1-cyclopentyl-6-methoxy-5-(3-(pyrrolidin-1-yl)propoxy)-1H-benzo[d]imidazol-2-amine] | 0.1 to 1
5 | COc1cc2c(cc1OCCCN1CCCC1)N=C(N)C21CCOCC1 [Compound 5, 5-methoxy-6-(3-(pyrrolidin-1-yl)propoxy)-2′,3′,5′,6′-tetrahydrospiro[indole-3,4′-pyran]-2-amine] | 0.1 to 1
6 | COc1cc2sc(N)nc2cc1OCCCN1CCCC1 [Compound 6, 6-methoxy-5-[3-(pyrrolidin-1-yl)propoxy]-1,3-benzothiazol-2-amine] | > 10
7 | CNc1nc2cc(OCCCN3CCCC3)c(OC)cc2n1C [Compound 8, 6-methoxy-N,1-dimethyl-5-(3-(pyrrolidin-1-yl)propoxy)-1H-benzo[d]imidazol-2-amine] | < 0.1
8 | CCN1CC[C@@H](COc2cc3nc(N)n(C4CCCC4)c3cc2OC)C1 [Compound 9, 1-cyclopentyl-5-[[(3R)-1-ethylpyrrolidin-3-yl]methoxy]-6-methoxy-1H-1,3-benzodiazol-2-amine] | 0.1 to 1
9 | CCN1CC(COc2cc3nc(N)n(C4CCCC4)c3cc2OC)C1 [Compound 10, 1-cyclopentyl-5-((1-ethylazetidin-3-yl)methoxy)-6-methoxy-1H-benzo[d]imidazol-2-amine] | 0.1 to 1
10 | COc1cc2c(cc1OCCCN1CCCC1)nc(N)n2CC(F)(F)F [Compound 11, 6-methoxy-5-(3-(pyrrolidin-1-yl)propoxy)-1-(2,2,2-trifluoroethyl)-1H-benzo[d]imidazole-2-amine] | 1 to 10
11 | COc1cc2c(cc1OCCCN1CCCC1)nc(NCC(F)(F)F)n2C [Compound 12, 6-methoxy-1-methyl-5-(3-(pyrrolidin-1-yl)propoxy)-N-(2,2,2-trifluoroethyl)-1H-benzo[d]imidazol-2-amine] | 1 to 10
12 | CNc1nc2cc(OCCCN3CCCC3)c(OC)cc2n1C1CCOCC1 [Compound 13, 6-methoxy-N-methyl-5-(3-(pyrrolidin-1-yl)propoxy)-1-(tetrahydro-2H-pyran-4-yl)-1H-benzo[d]imidazol-2-amine] | 0.1 to 1
13 | COc1cc2c(cc1OCCCN1CCCC1)nc(N)n2CC1CCOCC1 [Compound 18] | 1 to 10
14 | COc1cc2c(cc1OCCCN1CCCC1)nc(N)n2C(C)C [Compound 19] | 0.1 to 1
15 | COc1cc2c(cc1OCCCN1CCCC1)nc(C)n2C [Compound 21, 6-methoxy-1,2-dimethyl-5-(3-(pyrrolidin-1-yl)propoxy)-1H-benzo[d]imidazole] | > 10
16 | COc1cc2c(cc1OCCCN1CCCC1)nc(C1CCCC1)n2C [Compound 22, 2-cyclopentyl-6-methoxy-1-methyl-5-(3-(pyrrolidin-1-yl)propoxy)-1H-benzo[d]imidazole] | > 10
17 | COc1cc2c(cc1OCCCN1CCCC1)nc(C)n2C1CCCC1 [Compound 23, 1-cyclopentyl-6-methoxy-2-methyl-5-(3-(pyrrolidin-1-yl)propoxy)-1H-benzo[d]imidazole] | 1 to 10
18 | COc1cc2c(cc1C#CCN1CCCC1)N=C(N)C21CCC1 [Compound 24, 5′-methoxy-6′-(3-(pyrrolidin-1-yl)prop-1-yn-1-yl)spiro[cyclobutane-1,3′-indol]-2′-amine] | < 0.1
19 | CNc1nc2cc(OC[C@H](O)CN3CCC3)c(OC)cc2n1C [Compound 25] | 0.1 to 1

Row | SMILES | IC50 [µM]
20 | CNc1nc2cc(OC[C@H](O)CN3CCCC3)c(OC)cc2n1C [Compound 26] | 0.1 to 1
21 | CCNc1nc2cc(OCCCN3CCCC3)c(OC)cc2n1C [Compound 27] | 0.1 to 1
22 | COc1cc2c(cc1OCCCN1CCCC1)nc(NC(C)C)n2C [Compound 28] | 1 to 10
23 | COc1cc2c(cc1OCCCN1CCCC1)nc(NC1CCOCC1)n2C [Compound 29] | 1 to 10
24 | COc1cc2c(cc1OCCCN1CCCC1)nc(NC1CCCC1)n2C [Compound 30] | 1 to 10
25 | CCNc1nc2cc(OC[C@H](O)CN3CCCC3)c(OC)cc2n1C [Compound 31] | 0.1 to 1
26 | COc1cc2c(cc1OC[C@H](O)CN1CCCC1)nc(NC(C)C)n2C [Compound 32] | 1 to 10
27 | COc1cc2c(cc1OC[C@H](O)CN1CCCC1)nc(NC1CCCC1)n2C [Compound 33] | 1 to 10
28 | COc1cc2c(cc1OC[C@H](O)CN1CCCC1)nc(NCC1CC1)n2C [Compound 34] | 0.1 to 1
29 | COc1cc2c(cc1OC[C@H](O)CN1CCCC1)nc(NC1CCOCC1)n2C [Compound 35] | > 10
30 | CNc1nc2cc(OCCCN3CCCC3)c(OC)cc2n1C(C)C [Compound 36] | < 0.1
31 | CNc1nc2cc(CNCCN3CCCC3)c(OC)cc2n1C [Compound 37] | 0.1 to 1
32 | CNc1nc2cc(OC[C@H](O)CN3CCCC3)c(OC)cc2n1C1CCCC1 [Compound 38] | 0.1 to 1
33 | CCNc1nc2cc(OCCCN3CCCC3)c(OC)cc2n1CC [Compound 39] | 0.1 to 1
34 | CNc1nc2cc(CNCCN3CCCC3)c(OC)cc2n1C(C)C [Compound 40] | 1 to 10
35 | CCn1c(NC)nc2cc(CNCCN3CCCC3)c(OC)cc21 [Compound 41] | 0.1 to 1
36 | CCn1c(NC)nc2cc(OCCCN3CCCC3)c(OC)cc21 [Compound 42] | < 0.1
